Source: patent US9833497B2, “Human originated EGF domain proteins and use of the same” (CHENGDU SOURCEBIO LIMITED-LIABILITY COMPANY, priority 2013, dated 2017)

Experiments:
Format in all cases: cell-based
E. coli DH5α = assay: Antibacterial activity: MIC and growth curve against E. coli DH5α in 96-well plate; conditions: minimal inhibitory concentration against E. coli DH5α; 96-well plate, 5×10^5 CFU/mL, 37° C., judged after 8 h
Procedure, shortened: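 MIC taken as lowest protein level with no bacterial growth, tracked by A600 every 30 min during 37 °C, 175 rpm culture. Two-fold protein series 50-12.5 μg/mL final, triplicate wells, against 5×10^5 CFU/mL of LB-washed mid-log cells.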

E. coli BL21 = assay: MIC against Gram-negative bacteria: E. coli BL21; conditions: 5×10^5 CFU/mL
Procedure, shortened: (§1)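 MIC = lowest concentration of recombinant protein showing no growth. Test proteins: purified human-derived EGF domain proteins, two-fold dilution series, three wells per concentration; inoculum 5×10^5 CFU/mL in LB; incubation 37° C with shaking at 175 rpm.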

Pseudomonas aeruginosa = assay: MIC against Gram-negative bacteria: Pseudomonas aeruginosa; conditions: 5×10^5 CFU/mL
Procedure, shortened: as §1

Klebsiella pneumonia = assay: MIC against Gram-negative bacteria: Klebsiella pneumonia; conditions: 5×10^5 CFU/mL
Procedure, shortened: as §1

Enterobacter cloacae = assay: MIC against Gram-negative bacteria: Enterobacter cloacae; conditions: 5×10^5 CFU/mL
Procedure, shortened: as §1

Aeromonas hydrophila = assay: MIC against Gram-negative bacteria: Aeromonas hydrophila; conditions: 5×10^5 CFU/mL
Procedure, shortened: as §1

Citrobacter diversus = assay: MIC against Gram-negative bacteria: Citrobacter diversus; conditions: 5×10^5 CFU/mL
Procedure, shortened: as §1

Moraxella catarrhalis = assay: MIC against Gram-negative bacteria: Moraxella catarrhalis; conditions: 5×10^5 CFU/mL
Procedure, shortened: as §1

Proteus mirabilis = assay: MIC against Gram-negative bacteria: Proteus mirabilis; conditions: 5×10^5 CFU/mL
Procedure, shortened: as §1

Proteus vulgaris = assay: MIC against Gram-negative bacteria: Proteus vulgaris; conditions: 5×10^5 CFU/mL
Procedure, shortened: as §1

Serratia marcescens = assay: MIC against Gram-negative bacteria: Serratia marcescens; conditions: 5×10^5 CFU/mL
Procedure, shortened: as §1

[1] = 10 h cultivation at 37° C., two-fold serial dilution
[2] = E. coli BL21, 10 h cultivation at 37° C.

In the case of “PRT1219 (DHDSCVHGPCQNGGSCLRRLAVSSVLKSRESLPVIIVANEPLQPFLCKCLPGYAGSWCE; listed as Homo sapiens)”, the MIC (E. coli DH5α) is reported as 12.5 µg/mL, the “MIC against E. coli BL21” value (E. coli BL21; E. coli BL21, 96-well plate, 37° C., 10 h) is reported as 50 µg/mL and the “MIC against P. aeruginosa” value (Pseudomonas aeruginosa; Pseudomonas aeruginosa, 96-well plate, 37° C., 10 h) is reported as 25 µg/mL. For the same substance, the “MIC against K. pneumonia” value (Klebsiella pneumonia; Klebsiella pneumonia, 96-well plate, 37° C., 10 h) was 12.5 µg/mL, the “MIC against E. cloacae” value (Enterobacter cloacae; Enterobacter cloacae, 96-well plate, 37° C., 10 h) was 50 µg/mL and the “MIC against A. hydrophila” value (Aeromonas hydrophila; Aeromonas hydrophila, 96-well plate, 37° C., 10 h) was 12.5 µg/mL. For the same substance, the “MIC against C. diversus” value (Citrobacter diversus; Citrobacter diversus, 96-well plate, 37° C., 10 h) was 25 µg/mL, the “MIC against M. catarrhalis” value (Moraxella catarrhalis; Moraxella catarrhalis, 96-well plate, 37° C., 10 h) was 25 µg/mL and the “MIC against P. mirabilis” value (Proteus mirabilis; Proteus mirabilis, 96-well plate, 37° C., 10 h) was 50 µg/mL. The “MIC against P. vulgaris” value (Proteus vulgaris; Proteus vulgaris, 96-well plate, 37° C., 10 h) was 25 µg/mL and the “MIC against S. marcescens” value (Serratia marcescens; Serratia marcescens, 96-well plate, 37° C., 10 h) was 25 µg/mL.
With “PRT497 (CACPHSPPASFSPTCVLEGDHDFRCDACLLGYEGKHCERCSSSYYGNPQTPGGSCQK; listed as Homo sapiens)” the MIC (E. coli DH5α) was 12.5 µg/mL, the “MIC against E. coli BL21” value (E. coli BL21; 96-well plate, 37° C., 10 h) was 25 µg/mL and the “MIC against P. aeruginosa” value (Pseudomonas aeruginosa; 96-well plate, 37° C., 10 h) was 50 µg/mL. The “MIC against K. pneumonia” value (Klebsiella pneumonia; 96-well plate, 37° C., 10 h) was 12.5 µg/mL, the “MIC against E. cloacae” value (Enterobacter cloacae; 96-well plate, 37° C., 10 h) was 25 µg/mL and the “MIC against A. hydrophila” value (Aeromonas hydrophila; 96-well plate, 37° C., 10 h) was 50 µg/mL. The “MIC against C. diversus” value (Citrobacter diversus; 96-well plate, 37° C., 10 h) was 25 µg/mL, the “MIC against M. catarrhalis” value (Moraxella catarrhalis; 96-well plate, 37° C., 10 h) was 12.5 µg/mL and the “MIC against P. mirabilis” value (Proteus mirabilis; 96-well plate, 37° C., 10 h) was 50 µg/mL. The “MIC against P. vulgaris” value (Proteus vulgaris; 96-well plate, 37° C., 10 h) was 12.5 µg/mL and the “MIC against S. marcescens” value (Serratia marcescens; 96-well plate, 37° C., 10 h) was 50 µg/mL.
With “PRT1092 (ILLGCTHQQCLNNGTCIPHFQDGQHGFSCLCPSGYTGSLCE; listed as Homo sapiens)” the MIC (E. coli DH5α) was 25 µg/mL, the “MIC E. coli BL21” value (E. coli BL21; [1]) was 50 µg/mL and the “MIC P. aeruginosa” value (Pseudomonas aeruginosa; [1]) was 25 µg/mL. For the same substance, the “MIC K. pneumonia” value (Klebsiella pneumonia; [1]) was 12.5 µg/mL, the “MIC E. cloacae” value (Enterobacter cloacae; [1]) was 25 µg/mL and the “MIC A. hydrophila” value (Aeromonas hydrophila; [1]) was 12.5 µg/mL. The “MIC C. diversus” value (Citrobacter diversus; [1]) was 12.5 µg/mL, the “MIC M. catarrhalis” value (Moraxella catarrhalis; [1]) was 25 µg/mL and the “MIC P. mirabilis” value (Proteus mirabilis; [1]) was 50 µg/mL. For the same substance, the “MIC P. vulgaris” value (Proteus vulgaris; [1]) was 25 µg/mL and the “MIC S. marcescens” value (Serratia marcescens; [1]) was 25 µg/mL.
With “PRT247 (GAAICQPPCRNGGSCVQPGRCRCPAGWRGDTCQ; listed as Homo sapiens)” the MIC (E. coli DH5α) was 12.5 µg/mL, the “MIC (μg/mL) E. coli BL21” value (E. coli BL21; [2]) was 12.5 µg/mL and the “MIC (μg/mL) P. aeruginosa” value (Pseudomonas aeruginosa; 10 h cultivation at 37° C.) was 12.5 µg/mL. The “MIC (μg/mL) K. pneumonia” value (Klebsiella pneumonia; 10 h cultivation at 37° C.) was 12.5 µg/mL, the “MIC (μg/mL) E. cloacae” value (Enterobacter cloacae; 10 h cultivation at 37° C.) was 25 µg/mL and the “MIC (μg/mL) A. hydrophila” value (Aeromonas hydrophila; 10 h cultivation at 37° C.) was 12.5 µg/mL. The “MIC (μg/mL) C. diversus” value (Citrobacter diversus; 10 h cultivation at 37° C.) was 25 µg/mL, the “MIC (μg/mL) M. catarrhalis” value (Moraxella catarrhalis; 10 h cultivation at 37° C.) was 100 µg/mL and the “MIC (μg/mL) P. mirabilis” value (Proteus mirabilis; 10 h cultivation at 37° C.) was 25 µg/mL. For the same substance, the “MIC (μg/mL) P. vulgaris” value (Proteus vulgaris; 10 h cultivation at 37° C.) was 12.5 µg/mL and the “MIC (μg/mL) S. marcescens” value (Serratia marcescens; 10 h cultivation at 37° C.) was 25 µg/mL.
With “PRT705 (LDDSCKLTCENGGRCILNEKGDLRCHCWPSYSGE; listed as Homo sapiens)” the MIC (E. coli DH5α) was 25 µg/mL, the “MIC E. coli BL21” value (E. coli BL21; 96-well plate, 37° C., 10 h) was 50 µg/mL and the “MIC P. aeruginosa” value (Pseudomonas aeruginosa; 96-well plate, 37° C., 10 h) was 12.5 µg/mL. For the same substance, the “MIC K. pneumonia” value (Klebsiella pneumonia; 96-well plate, 37° C., 10 h) was 50 µg/mL, the “MIC E. cloacae” value (Enterobacter cloacae; 96-well plate, 37° C., 10 h) was 12.5 µg/mL and the “MIC A. hydrophila” value (Aeromonas hydrophila; 96-well plate, 37° C., 10 h) was 25 µg/mL. The “MIC C. diversus” value (Citrobacter diversus; 96-well plate, 37° C., 10 h) was 100 µg/mL, the “MIC M. catarrhalis” value (Moraxella catarrhalis; 96-well plate, 37° C., 10 h) was 25 µg/mL and the “MIC P. mirabilis” value (Proteus mirabilis; 96-well plate, 37° C., 10 h) was 50 µg/mL. The “MIC P. vulgaris” value (Proteus vulgaris; 96-well plate, 37° C., 10 h) was 12.5 µg/mL and the “MIC S. marcescens” value (Serratia marcescens; 96-well plate, 37° C., 10 h) was 50 µg/mL.
With “PRT217 (DIDECTIPPYCHQRCVNTPGSFYCQCSPGFQLAANNYTCV; listed as Homo sapiens)” the MIC (E. coli DH5α) was 12.5 µg/mL, the “MIC (μg/mL) E. coli BL21” value (E. coli BL21; [2]) was 25 µg/mL and the “MIC (μg/mL) P. aeruginosa” value (Pseudomonas aeruginosa; 10 h cultivation at 37° C.) was 12.5 µg/mL. For the same substance, the “MIC (μg/mL) K. pneumonia” value (Klebsiella pneumonia; 10 h cultivation at 37° C.) was 25 µg/mL, the “MIC (μg/mL) E. cloacae” value (Enterobacter cloacae; 10 h cultivation at 37° C.) was 12.5 µg/mL and the “MIC (μg/mL) A. hydrophila” value (Aeromonas hydrophila; 10 h cultivation at 37° C.) was 25 µg/mL. The “MIC (μg/mL) C. diversus” value (Citrobacter diversus; 10 h cultivation at 37° C.) was 12.5 µg/mL, the “MIC (μg/mL) M. catarrhalis” value (Moraxella catarrhalis; 10 h cultivation at 37° C.) was 12.5 µg/mL and the “MIC (μg/mL) P. mirabilis” value (Proteus mirabilis; 10 h cultivation at 37° C.) was 12.5 µg/mL. For the same substance, the “MIC (μg/mL) P. vulgaris” value (Proteus vulgaris; 10 h cultivation at 37° C.) was 12.5 µg/mL and the “MIC (μg/mL) S. marcescens” value (Serratia marcescens; 10 h cultivation at 37° C.) was 50 µg/mL.
